Values joined by “and” are separate entries in the source; they are usually repeats but may differ in a detail not shown here. Equal entries are not always repeated.
System: EAAT2
Assay: EAAT2 protein levels in PA-EAAT2 cells by Western blot
Type: cell-based, human
Conditions: for Fold increase for EAAT2, 24 h / Fold increase for EAAT2, 4 h: compound 10 μM, PA-EAAT2 cells, relative to DMSO controls, na = not active; for Fold increase for EAAT2, 24 h: 24 h incubation; for SAR comparison of activity on EAAT2 protein levels, in words: relative to parent/comparator analogue, Tables 1-4; for Fold increase for EAAT2, 4 h: 4 h incubation
Experimental: All of the derivates of 1 were initially evaluated in PA-EAAT2 cells^3 (a primary astrocyte line stably expressing EAAT2 mRNAs) following compound (10 μM) incubation for 4 and 24 h before harvesting and measuring EAAT2 levels by Western blot analysis. The fold increases in EAAT2 protein levels relative to DMSO controls are reported (Tables 1-4).
Characterization and efficacy studies of a compound, Compound 212320 (FIG. 6A) is shown. […] In the absence of serum, PA-EAAT2 cells express low amounts of EAAT2 protein, although the recombinant EAAT2 mRNA are expressed (translational silencing); however, EAAT2 protein levels are increased when an activator is added to the culture (translational activation). This cell line was used for high-throughput screening to identify EAAT2 translational activators. To prioritize candidate compounds, we initially evaluated activation of EAAT2 protein in PA-EAAT2 cells. Promising compounds were further evaluated in primary dissociated neuron and astrocyte mixed cultures and then in mice. FIG. 6 presents the characterization of Compound 212320 in PA-EAAT2 cells. Compound 212320 increased EAAT2 protein levels in a dose—(FIG. 6B) and time—(FIG. 6C) dependent manner. Importantly, the induction occurred in a short amount of time (within 1-2 hr) and was sustained even up to 72 hr (data not show). Additionally, induction occurred at low nanomolar concentrations. […] (FIG. 6D).

| SMILES | Fold increase for EAAT2, 24 h | SAR comparison of activity on EAAT2 protein levels, in words | Fold increase for EAAT2, 4 h | Improvement of potency/activity compared to 1 (compared to compound 1, Table 4) |
| --- | --- | --- | --- | --- |
| Cc1cccc(C)c1CSc1ccc(-c2ccccn2)nn1 [Compound 7-13] | 6.5 ± 1.0 fold | increased potency | – | – |
| c1ccc(CSc2ccc(-c3ccccn3)nn2)cc1 [Compound 7-12] | 3.0 ± 0.4 fold and 3.0 ± 0.5 fold | essentially the same potency as 1 | 1.3 ± 0.2 fold | – |
| Fc1cccc(Cl)c1CCOc1ccc(-c2ccccn2)nn1 [Compound 8-5] | 3.1 ± 1.2 fold | – | 2.2 ± 0.4 fold | – |
| Fc1cccc(Cl)c1CCSc1ccc(-c2ccccn2)nn1 [Compound 7-15] | 6.7 ± 1.5 fold | more potent | 1.9 ± 0.7 fold | – |
| Fc1ccc(COc2ccc(-c3ccccn3)nn2)c(F)c1 [Compound 8-6] | 2.3 ± 0.6 fold | – | – | – |
| Cc1cc(C)c(CSc2ccc(-c3ccccn3)nn2)c(C)c1 [Compound 7-30] | 4.7 ± 0.5 fold | increased potency | 1.7 ± 0.3 fold | – |
| Cc1ccccc1CNc1ccc(-c2ccccn2)nn1 [Compound 14] | 2.6 ± 0.5 fold | weaker activity | 1.7 ± 1.1 fold | – |
| Cc1ccc(CSc2ccc(-c3ccccn3)nn2)cc1 [Compound 7-28] | – | less potent | – | – |
| Clc1ccccc1CSc1ccc(-c2ccncc2)nn1 [Compound 7-9] | 1.7 ± 0.3 fold | reduced activity | 1.5 ± 0.2 fold | – |
| CC(Sc1ccc(-c2ccccn2)nn1)c1c(F)cccc1Cl (racemic) [Compound 7-14] | 5.5 ± 1.0 fold | – | 1.7 ± 0.9 fold | about 3 fold |
| Cc1ccc(CSc2ccc(-c3ccccn3)nn2)c(C)c1 [Compound 7-17] | 6.4 ± 1.0 fold | increased potency | 1.9 ± 0.8 fold | – |
| Fc1ccccc1CSc1ccc(-c2ccccn2)nn1 [Compound 7-23] | 3.1 ± 0.2 fold | improved activity | 2.2 ± 0.1 fold | – |
| Fc1ccc(CSc2ccc(-c3ccccn3)nn2)c(F)c1 [Compound 7-16] | 3.8 ± 0.8 fold | improved activity | 2.4 ± 1.5 fold | – |
| Cc1ccc(COc2ccc(-c3ccccn3)nn2)c(C)c1 [Compound 8-7] | 2.0 ± 0.9 fold | – | – | – |
| O=S(=O)(Cc1c(F)cccc1Cl)c1ccc(-c2ccccn2)nn1 [Compound 9-1] | 2.8 ± 0.4 fold | detrimental | 1.4 ± 0.3 fold | – |
| Cc1ccccc1CNC(=O)c1ccc(-c2ccccn2)nn1 [Compound 17-2] | 1.4 ± 0.2 fold | not tolerated | – | – |
| O=S(=O)(Cc1ccccc1Cl)c1ccc(-c2ccccn2)nn1 [Compound 9-3] | – | detrimental | 1.6 ± 0.3 fold | – |
